{"source": "paper PMC5572076", "about": "(Xenobiotica; the fate of foreign compounds in biological …, 2016)", "key": {"[1]": {"conditions": "mice, cited from earlier work"}, "Human MRP4": {"target": "T1, Human MRP4 (Homo sapiens, UniProt O15439)", "T1 sequence (O15439 1-1325)": "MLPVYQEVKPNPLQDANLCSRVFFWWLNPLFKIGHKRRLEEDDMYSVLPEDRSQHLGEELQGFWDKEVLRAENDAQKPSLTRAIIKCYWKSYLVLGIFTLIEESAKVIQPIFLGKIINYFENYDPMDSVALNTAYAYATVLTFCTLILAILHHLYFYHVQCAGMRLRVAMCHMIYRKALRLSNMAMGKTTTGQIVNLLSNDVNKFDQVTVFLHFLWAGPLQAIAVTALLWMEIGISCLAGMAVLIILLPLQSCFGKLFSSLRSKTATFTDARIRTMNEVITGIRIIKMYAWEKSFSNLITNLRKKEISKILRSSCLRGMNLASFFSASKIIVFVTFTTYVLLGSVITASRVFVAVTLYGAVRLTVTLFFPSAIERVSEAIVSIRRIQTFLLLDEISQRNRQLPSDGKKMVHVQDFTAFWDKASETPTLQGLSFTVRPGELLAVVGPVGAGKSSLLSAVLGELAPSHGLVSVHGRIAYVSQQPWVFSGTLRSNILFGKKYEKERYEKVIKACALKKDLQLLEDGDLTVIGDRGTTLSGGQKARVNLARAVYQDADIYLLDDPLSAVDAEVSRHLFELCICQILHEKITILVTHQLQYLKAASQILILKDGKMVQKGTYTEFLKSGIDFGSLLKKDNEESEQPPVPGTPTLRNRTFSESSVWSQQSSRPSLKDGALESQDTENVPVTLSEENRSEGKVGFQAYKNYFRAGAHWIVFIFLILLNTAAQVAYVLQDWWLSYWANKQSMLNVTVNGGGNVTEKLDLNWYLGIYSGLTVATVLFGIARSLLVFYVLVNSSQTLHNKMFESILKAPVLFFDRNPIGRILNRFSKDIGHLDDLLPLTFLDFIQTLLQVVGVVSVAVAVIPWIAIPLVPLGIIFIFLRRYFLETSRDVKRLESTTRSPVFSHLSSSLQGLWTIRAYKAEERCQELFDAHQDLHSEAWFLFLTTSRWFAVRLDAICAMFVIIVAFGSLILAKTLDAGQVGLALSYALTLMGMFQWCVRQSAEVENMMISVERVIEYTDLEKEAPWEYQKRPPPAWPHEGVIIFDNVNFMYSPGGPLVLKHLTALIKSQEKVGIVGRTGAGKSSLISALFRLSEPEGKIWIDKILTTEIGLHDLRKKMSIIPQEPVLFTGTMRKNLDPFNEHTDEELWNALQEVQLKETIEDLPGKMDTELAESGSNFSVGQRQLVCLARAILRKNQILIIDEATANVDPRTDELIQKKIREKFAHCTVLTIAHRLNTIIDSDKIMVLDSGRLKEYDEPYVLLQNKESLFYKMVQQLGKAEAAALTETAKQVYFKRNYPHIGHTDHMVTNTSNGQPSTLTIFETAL", "test": "Vesicular uptake assay, MRP4 membrane vesicles"}, "[2]": {"conditions": "given into the carotid artery, rats; ref Neuwelt et al., 2001; cited from earlier work"}, "Human MRP1": {"target": "Human MRP1 (Homo sapiens, UniProt P33527)", "sequence (P33527 whole entry)": "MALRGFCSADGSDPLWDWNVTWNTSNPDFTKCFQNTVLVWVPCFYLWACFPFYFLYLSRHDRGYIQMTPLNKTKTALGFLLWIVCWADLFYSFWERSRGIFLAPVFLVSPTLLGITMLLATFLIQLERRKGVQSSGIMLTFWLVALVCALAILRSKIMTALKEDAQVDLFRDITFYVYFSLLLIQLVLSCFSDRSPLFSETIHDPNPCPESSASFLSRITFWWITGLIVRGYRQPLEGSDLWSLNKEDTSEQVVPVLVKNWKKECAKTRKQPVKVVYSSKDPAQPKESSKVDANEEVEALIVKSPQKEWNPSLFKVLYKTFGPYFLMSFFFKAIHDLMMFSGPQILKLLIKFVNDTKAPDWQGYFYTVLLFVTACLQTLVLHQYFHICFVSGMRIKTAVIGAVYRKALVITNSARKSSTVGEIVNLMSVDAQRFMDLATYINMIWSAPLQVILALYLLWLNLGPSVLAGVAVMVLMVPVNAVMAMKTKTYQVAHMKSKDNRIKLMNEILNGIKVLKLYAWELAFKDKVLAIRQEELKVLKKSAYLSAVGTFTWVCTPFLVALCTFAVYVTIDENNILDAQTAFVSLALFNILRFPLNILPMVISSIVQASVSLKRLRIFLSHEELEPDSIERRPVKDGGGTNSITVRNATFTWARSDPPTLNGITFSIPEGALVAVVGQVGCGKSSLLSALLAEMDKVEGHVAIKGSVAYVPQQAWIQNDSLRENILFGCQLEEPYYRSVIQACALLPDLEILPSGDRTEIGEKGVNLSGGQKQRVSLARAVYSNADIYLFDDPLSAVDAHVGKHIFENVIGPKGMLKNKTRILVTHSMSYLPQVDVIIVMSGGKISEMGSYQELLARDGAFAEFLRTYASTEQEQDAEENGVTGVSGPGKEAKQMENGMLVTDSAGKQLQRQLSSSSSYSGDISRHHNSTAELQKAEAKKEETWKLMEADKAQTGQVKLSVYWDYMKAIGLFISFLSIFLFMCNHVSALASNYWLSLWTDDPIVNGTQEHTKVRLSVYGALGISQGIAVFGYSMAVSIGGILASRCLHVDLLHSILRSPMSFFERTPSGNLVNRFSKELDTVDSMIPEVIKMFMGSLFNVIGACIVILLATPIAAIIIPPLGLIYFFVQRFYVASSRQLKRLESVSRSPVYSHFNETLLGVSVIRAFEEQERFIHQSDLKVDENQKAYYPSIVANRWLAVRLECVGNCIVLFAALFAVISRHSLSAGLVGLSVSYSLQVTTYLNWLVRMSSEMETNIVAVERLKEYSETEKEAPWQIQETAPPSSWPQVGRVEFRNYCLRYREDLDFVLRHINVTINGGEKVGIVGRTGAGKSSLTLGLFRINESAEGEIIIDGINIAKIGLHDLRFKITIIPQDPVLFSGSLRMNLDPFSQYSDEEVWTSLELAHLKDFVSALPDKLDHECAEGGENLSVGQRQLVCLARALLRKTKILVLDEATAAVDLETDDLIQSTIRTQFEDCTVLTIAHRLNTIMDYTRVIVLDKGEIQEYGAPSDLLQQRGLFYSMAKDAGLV", "test": "Vesicular uptake assay, MRP1 membrane vesicles"}, "[3]": {"conditions": "ref Giustarini et al., 2012; cited from earlier work"}, "[4]": {"conditions": "ref Borgstrom et al., 1986; cited from earlier work"}, "human OAT1": {"target": "T2, human OAT1 (Homo sapiens, UniProt Q4U2R8)", "T2 sequence (Q4U2R8 1-563)": "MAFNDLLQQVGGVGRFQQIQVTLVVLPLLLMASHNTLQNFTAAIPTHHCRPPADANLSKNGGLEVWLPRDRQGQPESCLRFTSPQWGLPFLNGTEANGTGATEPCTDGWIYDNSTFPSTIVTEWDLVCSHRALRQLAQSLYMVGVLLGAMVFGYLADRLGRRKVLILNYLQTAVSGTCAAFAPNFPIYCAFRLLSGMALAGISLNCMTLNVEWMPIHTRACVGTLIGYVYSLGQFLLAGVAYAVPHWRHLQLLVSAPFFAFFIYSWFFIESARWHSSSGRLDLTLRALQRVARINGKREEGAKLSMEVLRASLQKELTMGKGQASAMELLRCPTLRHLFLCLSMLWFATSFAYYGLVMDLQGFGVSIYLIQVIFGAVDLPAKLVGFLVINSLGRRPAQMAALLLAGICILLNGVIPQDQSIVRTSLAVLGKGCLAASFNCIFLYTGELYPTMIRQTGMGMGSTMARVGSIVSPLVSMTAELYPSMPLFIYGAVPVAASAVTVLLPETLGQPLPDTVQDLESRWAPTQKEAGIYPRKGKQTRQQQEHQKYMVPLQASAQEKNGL"}, "[5]": {"test": "NAC plasma pharmacokinetics with or without probenecid, intraperitoneal", "format": "in vivo, Sprague-Dawley rats", "conditions": "juvenile rats"}, "[6]": {"format": "in vivo, Sprague-Dawley rats"}, "human OAT3": {"target": "T3, human OAT3 (Homo sapiens, UniProt Q8TCC7)", "T3 sequence (Q8TCC7 1-542)": "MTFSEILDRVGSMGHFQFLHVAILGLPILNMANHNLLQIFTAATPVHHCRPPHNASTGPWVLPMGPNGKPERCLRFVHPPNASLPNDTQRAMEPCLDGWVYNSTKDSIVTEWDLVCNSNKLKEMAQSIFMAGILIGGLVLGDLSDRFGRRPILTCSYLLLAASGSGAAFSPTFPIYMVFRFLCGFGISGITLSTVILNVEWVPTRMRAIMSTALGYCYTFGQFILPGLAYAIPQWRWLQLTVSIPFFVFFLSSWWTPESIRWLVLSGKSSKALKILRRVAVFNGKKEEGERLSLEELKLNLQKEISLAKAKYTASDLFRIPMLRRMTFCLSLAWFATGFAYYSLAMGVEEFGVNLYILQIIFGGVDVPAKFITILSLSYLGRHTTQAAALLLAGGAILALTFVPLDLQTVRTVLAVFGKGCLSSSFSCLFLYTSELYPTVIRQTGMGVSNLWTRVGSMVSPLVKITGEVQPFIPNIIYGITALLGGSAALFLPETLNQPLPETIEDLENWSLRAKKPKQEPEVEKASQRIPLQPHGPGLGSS", "test": "14C-NAC uptake in HEK-OAT3 cells"}, "HEK-EV cells": {"test_system": "HEK-EV cells", "test": "14C-NAC uptake in HEK-empty vector control cells", "format": "in vitro ADME, human", "conditions": "200 μM probenecid, 25 min, n = 3"}, "[7]": {"conditions": "in vitro uptake and inhibition experiments"}, "[8]": {"conditions": "OAT3-overexpressing cells, 25 μM NAC"}}, "note": "“Also recorded” adds a separate entry of the source. Like-named read-outs stand apart in the source and are kept apart here.", "data": [{"smiles": "CC(=O)N[C@@H](CS)C(N)=O", "values": [{"measurement": "detection in the brain", "setting": "[1]; IP and oral administration, ref Offen et al., 2004", "value": "able to detect"}]}, {"smiles": "C[C@]12CC[C@@H]3c4ccc(O)cc4CC[C@H]3[C@@H]1CC[C@@H]2O[C@@H]1O[C@H](C(=O)O)[C@@H](O)[C@H](O)[C@H]1O", "note": "[E217βG, estradiol-17β-D- glucuronide]", "values": [{"measurement": "ATP-dependent uptake of positive control substrate", "setting": "Human MRP4; MRP4 vesicles, 0.25–100 μM, 0.5 minutes", "value": "saturable uptake"}]}, {"smiles": "CC(=O)N[C@@H](CS)C(=O)O", "note": "[NAC, N-acetylcysteine]", "values": [{"measurement": "ATP-dependent, transporter-mediated uptake of NAC vs AMP (negative control)", "setting": "Human MRP4; MRP4 vesicles, 25 μM NAC", "value": "No uptake; also recorded: not statistically different"}, {"measurement": "substrate status for MRP4", "setting": "Human MRP4; membrane vesicles", "value": "not a substrate"}, {"measurement": "crossing of the BBB", "setting": "[2]", "value": "can cross the BBB"}, {"measurement": "ATP-dependent, transporter-mediated uptake of NAC vs AMP (negative control)", "setting": "Human MRP1; MRP1 vesicles, 25 μM NAC", "value": "No uptake; also recorded: not statistically different"}, {"measurement": "substrate status for MRP1", "setting": "Human MRP1; membrane vesicles", "value": "not a substrate"}, {"measurement": "log D", "setting": "[3]", "value": "−5.4"}, {"measurement": "renally eliminated", "setting": "[4]", "value": "approximately 30%"}, {"measurement": "saturation of concentration-dependent NAC uptake", "setting": "human OAT1; HEK-OAT1, 25 min, up to 10 mM NAC", "value": "did not reach saturation"}, {"measurement": "NAC uptake rate", "setting": "human OAT1; OAT1-overexpressing cells, 25 μM NAC", "value": "4.2 ± 0.1", "unit": "pmol/mg/min"}, {"measurement": "time up to which NAC uptake is linear", "setting": "human OAT1; OAT1-overexpressing cells, 25 μM NAC, latest time point measured", "value": "≥ 42.5", "unit": "min"}, {"measurement": "substrate status for OAT1", "setting": "human OAT1; [7]", "value": "substrate"}, {"measurement": "apparent plasma clearance (CL/F)", "setting": "[5]; NAC 163 mg/kg ip alone", "value": "18.55 ± 0.483", "unit": "mL/min/kg"}, {"measurement": "apparent plasma clearance (CL/F)", "setting": "[5]; NAC 163 mg/kg ip in combination with probenecid 150 mg/kg ip", "value": "11.2 ± 0.137", "unit": "mL/min/kg"}, {"measurement": "levels in the brain", "setting": "[1]; IP administration, ref Erickson et al., 2012", "value": "low levels of NAC were measurable"}, {"measurement": "NAC brain levels at late time points", "setting": "[6]; NAC and probenecid group, up to last sampling time point (8 h)", "value": "remained measurable"}, {"measurement": "NAC brain levels at late time points", "setting": "[6]; NAC only group, 6 h and 8 h time points", "value": "below the limit of quantificaiton; also recorded: below limit of quantification"}, {"measurement": "saturation of concentration-dependent NAC uptake", "setting": "human OAT3; HEK-OAT3, 10 min, up to 10 mM NAC", "value": "did not reach saturation"}, {"measurement": "NAC uptake rate", "setting": "human OAT3; [8]", "value": "37.7 ± 1.9", "unit": "pmol/mg/min"}, {"measurement": "time up to which NAC uptake is linear", "setting": "human OAT3; [8]", "value": "at least 15 minutes"}, {"measurement": "substrate status for OAT3", "setting": "human OAT3; [7]", "value": "substrate"}]}, {"smiles": "CCCN(CCC)S(=O)(=O)c1ccc(C(=O)O)cc1", "note": "[probenecid]", "values": [{"measurement": "effect of probenecid on NAC uptake by control cells", "setting": "HEK-EV cells", "value": "no difference"}, {"measurement": "decrease of NAC uptake by probenecid", "setting": "human OAT3; OAT3, 200 μM probenecid pre-incubation 5 min, 10 min uptake, n = 3", "value": 93.9, "unit": "%"}]}]}
